Measurements from PMC9082918, “Time-course changes in DNA damage of corneal epithelial cells in rabbits following ocular instillation with genotoxic compounds” (Genes and Environment, 2022).
Read-outs that look alike come from different tables or passages of the source. Marks after values point to notes of the source that are not given here.

Experiments:
[1] = system: corneal epithelial cells of rabbit; experiment: In vivo alkaline comet assay of corneal epithelial cells after single ocular instillation
Method: Experiments were performed per sampling time, and […] clinically normal rabbits were randomly assigned to each treatment group.
After ocular instillation, the eyelids were artificially blinked several times. The rabbits were euthanized after 0.5, 2, 4, 6, and 24 h by intravenously administering an overdose (approximately 90 mg/kg) of thiopental solution (Ravonal; Nipro ES Pharma Co. Ltd., Osaka, Japan). The eyeballs of the rabbits were collected after euthanasia and subjected to the comet assay.
The collected eyes were washed with Ca^2+- and Mg^2+-free phosphate-buffered saline (PBS). After washing, the corneas were removed from the eyes using scissors. The removed corneas were treated with 1.2 unit/mL Dispase II (Roche Diagnostics K.K., Tokyo, Japan) in minimum essential media (MEM; Thermo Fisher Scientific K. K., Tokyo, Japan) supplemented with 10% bovine serum (10% BS/MEM) overnight at 4 °C. Corneal epithelial cells were isolated using a spatula and placed into fresh 10% BS/MEM. The cells were centrifuged at 200×g for 5 min, and the supernatants were discarded. The cells were resuspended in 1 mL of 0.25% trypsin (Thermo Fisher Scientific K. K.) and incubated for 10 min at 37 °C. Furthermore, 8 mL of 10% BS/MEM was added to the cells, and the cell suspensions were passed through a 70-μm cell strainer. The cells were centrifuged at 200×g for 5 min, and the supernatants were discarded. The cells were then resuspended with PBS to a density of approximately 2 × 10^5 cells/mL.
The alkaline comet assay was conducted according to previously published method. A 30 μL of the prepared cell suspension was mixed with 270 μL of melted agarose solution (CometAssay LMAgarose; Trevigen, Inc., Gaithersburg, MD). Then, 30 μL of this mixture was placed in each well of a 20-well slide (CometSlide HT, Trevigen, Inc.), and the slide was left for approximately 10 min at 4 °C to solidify the agarose. The slide was immersed in lysis solution (pH 10) containing 2.5 M sodium chloride, 100 mM di-sodium dihydrogen ethylenediaminetetraacetate dihydrate (EDTA∙2Na), 10 mM tris(hydroxymethyl)aminomethane (Tris), and 1% (v/v) polyethylene glycol mono-p-isooctylphenyl ether for 1 h at 4 °C. Subsequently, the slide was immersed in an alkaline unwinding solution (200 mM sodium hydroxide and 1 mM EDTA, pH > 13) for 20 min at room temperature. Electrophoresis was performed with the same solution at 1 V/cm for 30 min under refrigeration. After electrophoresis, the slide was washed twice with ultrapure water and dehydrated by immersion in ethanol for 10 min. The slide was stained with SYBR Green I Nucleic Acid Gel Stain (excitation maxima at 497 nm, emission maxima at 520 nm; Thermo Fisher Scientific K. K.) diluted 1:1000 with Tris-EDTA buffer (pH 7.5) and mounted using ProLong Gold (Thermo Fisher Scientific K. K.). The slide was observed using a BX51 fluorescence microscope (Olympus Corporation, Tokyo, Japan) with a NIBA filter (excitation at 460–495 nm and emission at 510–550 nm) equipped with a CCD camera (scA1300-32 fm; Basler AG, Ahrensburg, Germany).
First, the number of “hedgehogs” was counted among 150 comets per eye (450 comets per group). According to the Atlas of Comet Assay Images, hedgehogs are highly fragmented cells presenting as a small or non-existent comet head and large diffuse comet tail. Second, 150 scorable comets (i.e., with a clearly defined head and tail with no interference from neighboring cells) without hedgehogs were measured per eye (450 comets per group).

[2] = Cytotoxicity assay (Cell Counting Kit-8) after 1 min exposure; assay type: cell-based, human; settings: human
Method: (§1) For cytotoxicity assay, the HCE-T cells were seeded in a 96-well culture plate at a density of 5 × 10^3 cells/well (100 μL/well) and incubated for approximately 24 h. After the 24-h incubation, the cells were washed with PBS. The cells were then exposed to a mixture of 50 μL of serum-free medium and an equal volume of test compounds at twice concentration of final concentration for 1 min at room temperature. After the treatment, the cells were washed with PBS, and 100 μL of fresh culture medium was added. The cells were further incubated for 2, 4, 6, and 24 h at 37 °C. After that, the cells were incubated with 100 μL of Cell Counting Kit-8 (Dojindo Laboratories Co., Ltd., Kumamoto, Japan) diluted to one-tenth with a serum-free medium for 2 h at 37 °C. Absorbance was measured at 450 nm using a microplate reader (Synergy HTX, BioTek Instruments Inc., Winooski, VT). Cell viability was calculated as follows: the absorbance of compound-treated cells/the absorbance of non-treated cells, expressed as a percentage (n = 3/group).
(§2) The mean and SD of the % tail DNA and cell viability (%) were calculated for all experimental groups. […] JMP version 15.1.0 was used for all statistical analyses.

[3] = system: anterior segment of the eye; experiment: Ophthalmological examination of anterior ocular segment (slit-lamp, fluorescein staining); assay type: in vivo, rabbit
Method: (§3) Twenty-four hours after administration, the anterior segment of the eye was observed using a slit-lamp biomicroscope SL-130 (Carl Zeiss Meditec AG, Jena, Germany). The corneal epithelial damage was evaluated by staining with fluorescein (AYUMI Pharmaceutical Corporation, Tokyo, Japan). After anterior ocular observation, the rabbits were euthanized in the same manner as the comet assay, and the eyeballs of the rabbits were collected.

[4] = system: HCE-T cells; experiment: Cytotoxicity assay (Cell Counting Kit-8) after 1 min exposure; assay type: cell-based, human
Method: as §1, §2

[5] = system: HCE-T cells; experiment: In vitro comet assay after 1 min exposure; assay type: cell-based, human
Method: To assess time-course changes in DNA damage after short-time exposure to the genotoxic compounds, the in vitro comet assay was performed using HCE-T cells with reference to our previous study. Briefly, the HCE-T cells were seeded in a 12-well culture plate at a density of 5 × 10^4 cells/well (1 mL/well) and incubated for approximately 24 h. After a 24-h incubation, the cells were washed with PBS. […] After the treatment, the cells were washed with PBS, and 1 mL of fresh culture medium was added. The cells were further incubated for 2, 4, 6, and 24 h at 37 °C. After incubation, the cells were trypsinized (TrypLE™ Express, Thermo Fisher Scientific K.K.). In the same manner, the cells were exposed to the test compounds or distilled water as a negative control for 1 min to evaluate DNA damage immediately after exposure. Immediately after the treatment, the cells were washed and trypsinized. The collected cells were centrifuged and re-suspended in PBS at a density of 1–2 × 10^5 cells/mL. Comet assay was performed as described previously herein (n = 3/group).
as §2

[6] = system: rabbit cornea; experiment: Histopathological examination of cornea; settings: in vivo
Method: as §3
The collected eyes (one eye per group) were fixed with 1% formaldehyde/2.5% glutaraldehyde in 0.1 M phosphate buffer fixative overnight at 4 °C and post-fixed with 10% neutral-buffered formalin solution. The tissues were dehydrated using a graded alcohol series and embedded in paraffin. Approximately 3-μm-thick corneal tissue sections were prepared and stained with hematoxylin and eosin. All microscopic images were obtained with a BX53 microscope fitted with a DP74 digital camera (Olympus Corporation) and analyzed using the cellSens Standard imaging software, version 2.3 (Olympus Corporation).

[7] = after single ocular instillation (1% EtBr, 3% MMS, 1% 4-NQO), sampling at 0.5, 2, 4, 6, 24 h

SMILES: O=[N+]([O-])c1cc[n+]([O-])c2ccccc12 [4-NQO, 4-nitroquinoline 1-oxide]
- Time of the peak value of the % tail DNA [1, 7]: 0.5 h
- viability at 2 h ([2]; read-out: Cell viability): 139 ± 2%
- viability at 4 h ([2]; read-out: Cell viability): 114 ± 14.5%
- viability at 6 h ([2]; read-out: Cell viability): 123 ± 24.2%
- viability at 24 h ([2]; read-out: Cell viability): 118 ± 13.9%

SMILES: CC[n+]1c(-c2ccccc2)c2cc(N)ccc2c2ccc(N)cc21 [EtBr, ethidium bromide]
- Ophthalmological changes of the anterior ocular segment ([3]; 24 h after single ocular instillation (1% EtBr, 3% MMS)): No abnormal ophthalmological changes
- % tail DNA, median ([1]; 0.5 h after single ocular instillation (1% EtBr, 3% MMS, 1% 4-NQO)): 25.8%
- Frequency of hedgehog ([1]; 0.5 h after single ocular instillation (1% EtBr, 3% MMS, 1% 4-NQO), mean ± SD, n = 3): 3.6 ± 2.5%
- % tail DNA, mean ± SD ([1]; 0.5 h after single ocular instillation of 50 μL (1% EtBr, 3% MMS, 1% 4-NQO), n = 3 eyes): 31.0 ± 3.0%
- % tail DNA, median ([1]; 2 h after single ocular instillation (1% EtBr, 3% MMS, 1% 4-NQO)): 22.6%
- Frequency of hedgehog ([1]; 2 h after single ocular instillation (1% EtBr, 3% MMS, 1% 4-NQO), mean ± SD, n = 3): 3.3 ± 1.7%
- % tail DNA, mean ± SD ([1]; 2 h after single ocular instillation of 50 μL (1% EtBr, 3% MMS, 1% 4-NQO), n = 3 eyes): 28.1 ± 1.6%
- % tail DNA, median ([1]; 4 h after single ocular instillation (1% EtBr, 3% MMS, 1% 4-NQO)): 61.5%
- Frequency of hedgehog ([1]; 4 h after single ocular instillation (1% EtBr, 3% MMS, 1% 4-NQO), mean ± SD, n = 3): 8.9 ± 3.5^a %
- % tail DNA, mean ± SD ([1]; 4 h after single ocular instillation of 50 μL (1% EtBr, 3% MMS, 1% 4-NQO), n = 3 eyes): 55.3 ± 1.4%
- % tail DNA, median ([1]; 6 h after single ocular instillation (1% EtBr, 3% MMS, 1% 4-NQO)): 40.4%
- Frequency of hedgehog ([1]; 6 h after single ocular instillation (1% EtBr, 3% MMS, 1% 4-NQO), mean ± SD, n = 3): 1.6 ± 2.3%
- % tail DNA, mean ± SD ([1]; 6 h after single ocular instillation of 50 μL (1% EtBr, 3% MMS, 1% 4-NQO), n = 3 eyes): 41.0 ± 6.5%
- % tail DNA, median ([1]; 24 h after single ocular instillation (1% EtBr, 3% MMS, 1% 4-NQO)): 5.4%
- Frequency of hedgehog ([1]; 24 h after single ocular instillation (1% EtBr, 3% MMS, 1% 4-NQO), mean ± SD, n = 3): 0.4 ± 0.6%
- % tail DNA, mean ± SD ([1]; 24 h after single ocular instillation of 50 μL (1% EtBr, 3% MMS, 1% 4-NQO), n = 3 eyes): 10.0 ± 4.0%
- Time of the peak value of the % tail DNA [1, 7]: 4 h
- Cytotoxicity (in words) ([4]; 24 h after removing the compound, 1 min exposure, 0.5% EtBr): Moderate cytotoxicity
- Cytotoxicity (in words) ([4]; other times (2, 4, 6 h) after removing the compound, 1 min exposure, 0.5% EtBr): slight cytotoxicity
- viability at 2 h ([2]; read-out: Cell viability): 89.3 ± 6.1%
- viability at 4 h ([2]; read-out: Cell viability): 74.7 ± 8%
- viability at 6 h ([2]; read-out: Cell viability): 73.1 ± 4.6%
- viability at 24 h ([2]; read-out: Cell viability): 39.1 ± 1.3%
- Change of % tail DNA after removing the compound ([5]; 1 min exposure (0.5% EtBr, 0.5% MMS, 0.001% 4-NQO), then 2, 4, 6, 24 h in fresh medium): gradually increased

SMILES: COS(C)(=O)=O [MMS, methyl methanesulfonate]
- Ophthalmological changes of the anterior ocular segment ([3]; rabbit, in vivo): No abnormal ophthalmological changes
- Time of the peak value of the % tail DNA ([1]; rabbit, in vivo): 0.5 h
- % tail DNA, mean ± SD ([1]; rabbit, in vivo, 0.5 h): 66.2 ± 1.8%
- % tail DNA, median ([1]; rabbit, in vivo, 0.5 h): 70.8%
- Frequency of hedgehog ([1]; rabbit, in vivo, 0.5 h): 12.9 ± 7.8^a %
- % tail DNA, mean ± SD ([1]; rabbit, in vivo, 2 h): 63.6 ± 4.4%
- % tail DNA, median ([1]; rabbit, in vivo, 2 h): 69.4%
- Frequency of hedgehog ([1]; rabbit, in vivo, 2 h): 13.6 ± 8.3^a %
- % tail DNA, mean ± SD ([1]; rabbit, in vivo, 4 h): 47.1 ± 7.2%
- % tail DNA, median ([1]; rabbit, in vivo, 4 h): 48.9%
- Frequency of hedgehog ([1]; rabbit, in vivo, 4 h): 10.7 ± 1.0^a %
- % tail DNA, mean ± SD ([1]; rabbit, in vivo, 6 h): 50.1 ± 2.8%
- % tail DNA, median ([1]; rabbit, in vivo, 6 h): 56.0%
- Frequency of hedgehog ([1]; rabbit, in vivo, 6 h): 8.0 ± 2.0^a %
- % tail DNA, mean ± SD ([1]; rabbit, in vivo, 24 h): 40.1 ± 2.4%
- % tail DNA, median ([1]; rabbit, in vivo, 24 h): 38.1%
- Frequency of hedgehog ([1]; rabbit, in vivo, 24 h): 2.0 ± 1.0^a %
- Cytotoxicity (in words) [4]: no cytotoxicity
- viability at 2 h [2]: 115 ± 5.1%
- viability at 4 h [2]: 108.1 ± 0.3%
- viability at 6 h [2]: 108 ± 4.9%
- viability at 24 h [2]: 108 ± 11.3%
- Change of % tail DNA after removing the compound [5]: decreased
- Infiltrate, inflammatory cell, corneal limbus [6]: ±
